According to paper PMC12596218 (Journal of Lipid Research, 2025):
Where “and” joins values, the source holds several entries; their conditions need not be identical. Equal values may be shown once.

Experiments:
OATP1B3 = target: T1, OATP1B3 (Homo sapiens, UniProt Q9NPD5); assay: [3H]BSP transport inhibition assay in OATP1B3-HEK293 cells; assay type: cell-based; conditions: 1 μM [3H]BSP, 10 min; two independent experiments
T1 construct: stably transfected with the full open reading frames of human NTCP, ASBT, SOAT, OATP1B1, OATP1B3, OATP2B1, and murine Asbt (mAsbt); expressed in transfected cells; host or cells: HEK293, stably transfected (OATP1B3-HEK), tetracycline-induced
T1 sequence (Q9NPD5 1-702): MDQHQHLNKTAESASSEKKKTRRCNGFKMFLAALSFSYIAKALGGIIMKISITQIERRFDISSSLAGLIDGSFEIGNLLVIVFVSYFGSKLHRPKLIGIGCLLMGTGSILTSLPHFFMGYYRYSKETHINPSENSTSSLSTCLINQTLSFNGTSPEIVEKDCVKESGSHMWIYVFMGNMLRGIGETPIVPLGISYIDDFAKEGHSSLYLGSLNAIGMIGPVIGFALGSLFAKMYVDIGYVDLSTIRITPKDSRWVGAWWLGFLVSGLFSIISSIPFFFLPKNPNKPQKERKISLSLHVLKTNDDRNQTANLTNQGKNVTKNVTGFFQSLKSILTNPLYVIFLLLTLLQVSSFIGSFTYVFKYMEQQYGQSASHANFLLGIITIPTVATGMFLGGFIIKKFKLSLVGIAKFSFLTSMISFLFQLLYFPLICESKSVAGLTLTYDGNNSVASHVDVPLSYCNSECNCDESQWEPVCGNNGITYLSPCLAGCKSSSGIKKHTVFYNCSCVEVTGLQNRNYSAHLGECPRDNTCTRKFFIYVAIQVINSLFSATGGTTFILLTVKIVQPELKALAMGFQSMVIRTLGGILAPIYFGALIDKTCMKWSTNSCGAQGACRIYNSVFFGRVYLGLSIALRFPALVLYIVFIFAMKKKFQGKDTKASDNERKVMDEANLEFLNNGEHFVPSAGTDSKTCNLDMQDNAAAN
Source text: Human embryonic kidney HEK293 cells, stably transfected with the full open reading frames of human NTCP, ASBT, SOAT, OATP1B1, OATP1B3, OATP2B1, and murine Asbt (mAsbt) were used as reported ([18], [20], [21], [22], [23]). The NTCP, ASBT, and mAsbt constructs were C-terminally tagged with the FLAG epitope, and the SOAT construct was C-terminally tagged with green fluorescent protein. Non-transfected Flp-In HEK293 cells (Thermo Fisher Scientific) served as the control. All cell lines were maintained at 37°C, 5% CO2 and 95% humidity in DMEM/F-12 medium (Thermo Fisher Scientific) supplemented with 10% fetal calf serum (Sigma-Aldrich), 4 mM L-glutamine (PAA) and penicillin/streptomycin (PAA). Expression of the respective carrier protein was induced by tetracycline treatment at 1 μg/ml (Carl Roth GmbH + Co. KG).
(§1) Cells were seeded onto poly-L-lysine-coated 96-well plates, induced with 1 μg/ml tetracycline, and grown to confluence over 72 h at 37°C. Then, cells were washed with tempered (37°C) phosphate-buffered saline (PBS, containing 137.0 mM NaCl, 2.7 mM KCl, 1.5 mM KH2PO4, and 7.3 mM Na2HPO4, at pH 7.4) and preincubated with 80 μl sodium transport buffer (STB, containing 142.9 mM NaCl, 4.7 mM KCl, 1.2 mM MgSO4, 1.2 mM KH2PO4, 1.8 mM CaCl2, and 20.0 mM HEPES, at pH 7.4) for 5 min at 37°C. For inhibition studies, the medium was replaced by 80 μl STB containing the respective inhibitor or solvent alone and cells were further incubated for 5 min at 37°C. Transport experiments were started by adding 20 μl of a 5-fold concentrated substrate solution (solved in STB). For transport experiments under sodium-free conditions the same buffer composition was used as for STB, but sodium chloride was substituted with equimolar concentrations of choline chloride as previously reported ([20], [24]). Transport experiments were stopped by washing twice with ice-cold PBS and the plates were kept cool on ice until adding the lysis buffer [1% sodium dodecyl sulfate (SDS) and 1 N NaOH]. Then, the cell-associated radioactivity of the respective tritium-labeled substrate or ligand was quantified by liquid scintillation counting using MicroScint-20 scintillation cocktail (Revvity) in a Packard Microplate Scintillation Counter TopCount NXT (Packard Instrument Company). For IC50 transport inhibition measurements, the mean uptake values measured in non-carrier-expressing HEK293 control cells were defined as 0% uptake control and were subtracted from all other values. Values from cells without inhibitor and solvent alone were set to 100%. Finally, all net transport data were expressed as uptake or binding as % of control. All transport or inhibition graphs were generated with GraphPad Prism 6 (GraphPad). Determination of half maximal inhibitory concentrations (IC50) was done by nonlinear regression analysis using the equation log (inhibitor) versus response—variable slope settings. All data points of the IC50 curves represent means ± SD of quadruplicate determinations. For Km measurements, BS uptake in the absence of sodium was regarded as carrier-independent unspecific uptake and was subtracted from the transport rates in the presence of sodium to obtain carrier-specific uptake rates (indicated as dashed lines). From the specific uptake rates, Michaelis Menten Km values were calculated by non-linear regression analysis.

NTCP M290S (NTCP→ASBT) = target: T2, NTCP M290S (NTCP→ASBT) (Homo sapiens, UniProt Q14973, M290S); assay: [3H]TC transport and inhibition assay, NTCP→ASBT mutant in HEK293 cells; assay type: cell-based; conditions: 1 μM [3H]TC, 10 min
T2 construct: stably transfected with the full open reading frames of human NTCP, ASBT, SOAT, OATP1B1, OATP1B3, OATP2B1, and murine Asbt (mAsbt); expressed in transfected cells; host or cells: HEK293, stably transfected
T2 sequence (Q14973 1-349 M290S): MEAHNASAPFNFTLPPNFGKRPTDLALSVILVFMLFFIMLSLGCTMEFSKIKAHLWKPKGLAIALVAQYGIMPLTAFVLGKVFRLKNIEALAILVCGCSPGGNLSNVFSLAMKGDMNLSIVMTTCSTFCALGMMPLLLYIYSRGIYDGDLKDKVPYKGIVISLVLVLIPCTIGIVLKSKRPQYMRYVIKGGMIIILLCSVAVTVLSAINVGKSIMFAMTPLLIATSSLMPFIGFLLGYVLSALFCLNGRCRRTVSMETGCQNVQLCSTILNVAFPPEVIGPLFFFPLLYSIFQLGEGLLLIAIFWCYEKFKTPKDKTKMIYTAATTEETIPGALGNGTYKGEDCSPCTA
Method: Amplification was performed on a peqSTAR XS PEQLAB PCR cycler (Peqlab) with Pfu DNA polymerase (M774A; Promega) in 18 cycles under the following conditions: initial denaturation for 2 min at 95°C, denaturation for 30 s at 95°C, annealing for 1 min at 55°C, extension for 8 min and 30 s at 72°C, final elongation for 10 min at 72°C and final hold at 4°C. After amplification, the products were digested with DpnI (ER1701; Thermo Fisher Scientific) for 1 h at 37°C and transformed into TOP10 chemically competent E. coli (Thermo Fisher Scientific). Plasmids were isolated using a GeneJET Plasmid Miniprep Kit (Thermo Fisher Scientific) according to the manufacturer's protocol, and the generated point mutations were verified by DNA sequencing (Seqlab Microsynth).
as §1

| IC50 (OATP1B3) | Inhibition curves and AUC of NTCP→ASBT mutant compared to wild-type NTCP (NTCP M290S (NTCP→ASBT)) | SMILES |
| --- | --- | --- |
| 4.8 µM and 4.2 µM | did not significantly change | CCCCC1(CCCC)CN(c2ccccc2)c2cc(SC)c(OCC(=O)N[C@@H](C(=O)NCC(=O)O)c3ccccc3)cc2S(=O)(=O)C1 [elobixibat] |
| 5.5 µM and 5.2 µM | did not significantly change | CCCCC1(CCCC)CS(=O)(=O)c2ccc(N(C)C)cc2[C@@H](c2ccc(OCc3ccc(C[N+]45CCN(CC4)CC5)cc3)cc2)[C@H]1O [maralixibat] |
| 5.1 µM and 4.3 µM | did not significantly change | CCCCC1(CCCC)CN(c2ccccc2)c2cc(SC)c(OCC(=O)N[C@@H](C(=O)N[C@@H](CC)C(=O)O)c3ccc(O)cc3)cc2S(=O)(=O)N1 [odevixibat] |
| 2 to 8 µM and 7.8 µM and 5.1 µM | still inactive | CCCCC1(CCCC)CS(=O)(=O)c2ccc(N(C)C)cc2[C@@H](c2ccc(OCCCC[N+]34CCN(CC3)CC4)cc2)[C@H]1O [SC-435] |
| 2 to 8 µM and 3.6 µM and 2.2 µM | still inactive | CCCC[C@]1(CC)CS(=O)(=O)c2cc(CNC(CC(=O)O)CC(=O)O)c(OC)cc2[C@@H](c2ccccc2)N1 [linerixibat] |
